Data published in ChEMBL document CHEMBL1201862, “PubChem BioAssay data set” (2004).
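Following 48 hours of exposure in 96-well plates, responses at five concentrations were used to interpolate endpoints linearly. At the GI50, growth is halved.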 Activity calls are given as the source filed them. Rule as the data show it: active = GI50 up to about 1.1 µM and inactive = higher.

How the values were obtained:
Assay in all cases: NCI tumour cell line growth inhibition, 48 h
786-0 = tested on: 786-0
SN12C = tested on: SN12C
HCT-15 = tested on: HCT-15
OVCAR-4 = tested on: OVCAR-4
MDA-MB-435 = tested on: MDA-MB-435
SK-OV-3 = tested on: SK-OV-3
UACC-257 = tested on: UACC-257
M14 = tested on: M14
UACC-62 = tested on: UACC-62
NCI/ADR-RES = tested on: NCI/ADR-RES
MDA-N = tested on: MDA-N
UO-31 = tested on: UO-31
SK-MEL-28 = tested on: SK-MEL-28
SK-MEL-2 = tested on: SK-MEL-2
SNB-19 = tested on: SNB-19
MOLT-4 = tested on: MOLT-4
COLO 205 = tested on: COLO 205
KM12 = tested on: KM12
HOP-92 = tested on: HOP-92
K562 = tested on: K562

SMILES	GI50 (786-0)	GI50 (SN12C)	GI50 (HCT-15) [µM]	GI50 (OVCAR-4)	GI50 (MDA-MB-435)	GI50 (SK-OV-3)	GI50 (UACC-257)	GI50 (M14)	GI50 (UACC-62)	GI50 (NCI/ADR-RES)	GI50 (MDA-N)	GI50 (UO-31)	GI50 (SK-MEL-28)	GI50 (SK-MEL-2)	GI50 (SNB-19)	GI50 (MOLT-4)	GI50 (COLO 205)	GI50 (KM12)	GI50 (HOP-92)	GI50 (K562)
Cc1occc1C(=S)Nc1ccc(Cl)c(C(=O)OC(C(C)C)C(C)C)c1	13.7 µM (inactive)	14.9 µM (inactive)	13.1	14.7 µM (inactive)	15.1 µM (inactive)	18.4 µM (inactive)	4.85 µM (inactive)	12.7 µM (inactive)	10.8 µM (inactive)	9.98 µM (inactive)	12.1 µM (inactive)	5 µM (inactive)	12.5 µM (inactive)	16.5 µM (inactive)	21.3 µM (inactive)	5.32 µM (inactive)	9.59 µM (inactive)	12.5 µM (inactive)	7.82 µM (inactive)	–
C(CCc1nnc2c(n1)CCCC2)Cc1nnc2c(n1)CCCC2	> 100 µM (inactive)	> 100 µM (inactive)	> 100	> 100 µM (inactive)	88.7 µM (inactive)	> 100 µM (inactive)	–	> 100 µM (inactive)	> 100 µM (inactive)	> 100 µM (inactive)	88.3 µM (inactive)	> 100 µM (inactive)	> 100 µM (inactive)	> 100 µM (inactive)	> 100 µM (inactive)	> 100 µM (inactive)	> 100 µM (inactive)	> 100 µM (inactive)	> 100 µM (inactive)	> 100 µM (inactive)
C=C1C(=O)C2(C)OC2(C)C1C(=O)O (stereo unspecified)	> 100 µM (inactive)	> 100 µM (inactive)	> 100	> 100 µM (inactive)	> 100 µM (inactive)	> 100 µM (inactive)	> 100 µM (inactive)	> 100 µM (inactive)	> 100 µM (inactive)	> 100 µM (inactive)	> 100 µM (inactive)	> 100 µM (inactive)	> 100 µM (inactive)	> 100 µM (inactive)	> 100 µM (inactive)	–	> 100 µM (inactive)	> 100 µM (inactive)	> 100 µM (inactive)	> 100 µM (inactive)
O=C(C#CP(=O)(O)c1ccccc1)c1ccccc1	> 100 µM (inactive)	> 100 µM (inactive)	> 100	> 100 µM (inactive)	> 100 µM (inactive)	> 100 µM (inactive)	> 100 µM (inactive)	> 100 µM (inactive)	> 100 µM (inactive)	> 100 µM (inactive)	> 100 µM (inactive)	< 0.01 µM (active)	> 100 µM (inactive)	> 100 µM (inactive)	> 100 µM (inactive)	–	> 100 µM (inactive)	> 100 µM (inactive)	> 100 µM (inactive)	> 100 µM (inactive)
COC(=O)c1cc2c(c(C(=O)OC)c1)CCC2	> 100 µM (inactive)	–	63.1	> 100 µM (inactive)	> 100 µM (inactive)	> 100 µM (inactive)	> 100 µM (inactive)	> 100 µM (inactive)	–	59.8 µM (inactive)	> 100 µM (inactive)	85.7 µM (inactive)	> 100 µM (inactive)	> 100 µM (inactive)	> 100 µM (inactive)	37.2 µM (inactive)	–	–	49.9 µM (inactive)	59 µM (inactive)
CCCc1c(O)nc(Nc2nc3ccccc3[nH]2)[nH]c1=O	> 100 µM (inactive)	> 100 µM (inactive)	> 100	> 100 µM (inactive)	> 100 µM (inactive)	> 100 µM (inactive)	> 100 µM (inactive)	> 100 µM (inactive)	> 100 µM (inactive)	> 100 µM (inactive)	> 100 µM (inactive)	> 100 µM (inactive)	–	> 100 µM (inactive)	> 100 µM (inactive)	> 100 µM (inactive)	> 100 µM (inactive)	> 100 µM (inactive)	> 100 µM (inactive)	> 100 µM (inactive)
